Experimental data published in patent US4399290A, “Optically active tert-alkyl 7-(2-oxo-5-carbonyloxypyrrolidinyl)heptanoates” (E. I. Du Pont de Nemours and Company, priority 1981, dated 1983).

Tests used:
[1] = system: stomach (necrosis and inflammation caused by ethanol); test: oral cytoprotection against absolute-ethanol-induced stomach necrosis and inflammation (similar to Robert, U.S. Pat. No. 4,097,603); type: in vivo, rat (fasted, male); settings: for Percent Protection, 2 mg/kg 1 hr: 2 mg/kg oral, 1 hour interval between administration of compound and subsequent administration of ethanol; for cytoprotective potency relative to racemic form: optical isomer versus racemic form, Table 1 data
Description: The data of Table 1 are from tests similar to one described by Robert [U.S. Pat. No. 4,097,603 (1978)] in which fasted, male rats were treated with 8-azaprostanoids orally. Then, at various times later they were treated orally with 1.0 ml of absolute ethanol. The rats were sacrificed after ethanol administration and the stomachs were removed, inspected, and rated. The ED50 values of Table 1 represent the doses of 8-azaprostanoids that gave 50% protection from the necrosis and inflammation of the stomach caused by ethanol. For comparison, values are given for the natural prostaglandin, PGE1, and for racemic 7-[2-oxo-5(4,4-difluoro-3-hydroxy-1n-dec-1(E)-enyl)-1-pyrrolidinyl]heptanoic acid, which is identified in Table 1 as compound 8. The corresponding racemic tert-butyl ester is identified as 7. The structures of 7 and 8, each of which is a mixture of 4 optical isomers, are as follows: [drawing 18]
*"1 hr" refers to the 1 hour interval between administration of compound
and subsequent administration of ethanol.
**"Peak Time" refers to the interval between administration of compound
and administration of ethanol at which greatest protection is observed.

PGE1; rat stomach strips = test: antagonism of PGE1 in in vitro tests on rat stomach strips; settings: relative to racemic form 7
Excerpt: Some differences in biological activities of the racemic forms and different optical isomers of these 8-azaprostanoids can be seen in the data presented in Table 1.

Structure (SMILES)	Percent Protection, 2 mg/kg 1 hr [1] [%]	cytoprotective potency relative to racemic form [1]	potency as an antagonist of PGE1 (PGE1; rat stomach strips)	Peak Time ([1]; interval between administration of compound and of ethanol at which greatest protection is observed) [min]
CCCCCCC(F)(F)C(O)/C=C/C1CCC(=O)N1CCCCCCC(=O)OC(C)(C)C (single isomer, unassigned) [7d(15R,S), tert-butyl 7-[2-oxo-5-(S or R)-5-(4,4-difluoro-3(R,S)hydroxy-ln-dec-1(E)-enyl)-1-pyrrolidinyl]heptanoate]	-5	less potent than its racemic form 7	more potent than 7 as an antagonist of PGE1	
CCCCCCC(F)(F)C(O)/C=C/C1CCC(=O)N1CCCCCCC(=O)OC(C)(C)C (single isomer, unassigned) [7l(15R,S), tert-butyl 7-[2-oxo-5(R or S)-5-(4,4-difluoro-3(R,S)hydroxy-ln-dec-1(E)-enyl)-1-pyrrolidinyl]heptanoate]	59			
CCCCCCC(F)(F)[C@H](O)/C=C/[C@H]1CCC(=O)N1CCCCCCC(=O)O (single isomer, unassigned) [8l(15R), 7-[2-oxo-5(R or S)-5-(4,4-difluoro-3(R or S)-3-hydroxy-ln-dec-1(E)enyl)-1-pyrrolidinyl]heptanoic acid]		more potent as a cytoprotective agent than its racemic form 8		
CCCCCCC(F)(F)[C@@H](O)/C=C/[C@H]1CCC(=O)N1CCCCCCC(=O)O (single isomer, unassigned) [8l(15S), 7-[2-oxo-5(R or S)-5-(4,4-difluoro-3(R or S)-3-hydroxy-ln-dec-1(E)enyl)-1-pyrrolidinyl]heptanoic acid]				15
